The record followed here is patent publication US12569563B2, “Selective HDAC6 degraders and methods of use thereof” (DANA-FARBER CANCER INSTITUTE, INC., priority 2019, dated 2026).

pIC50: −log10 of the molar value.

The target in this test is T1, CRBN (Homo sapiens, UniProt Q96SW2).
T1 construct: endogenous in cells; host or cells: Flp-In 293 cells stably expressing BRD4BD2-eGFP-P2A-mCherry
As to the kind of experiment: Cellular CRBN engagement assay (competition with dBET6, BRD4BD2-eGFP reporter). The test is classed as cell-based. The settings on record: Flip-In 293 BRD4BD2-eGFP cells, 100 nM dBET6, 5 h. An excerpt: The cellular CRBN engagement assay measures the cellular binding affinity which is the combination of the compound's cell permeability and their binding affinity to CRBN. This is done by measuring the ability of thalidomide-based degrader molecules to compete with pan-BET bromodomain degrader dBET6 (Nowak et al., Nat. Chem. Biol. 14:706-714 (2018)) for CRBN binding in cells. If no degrader compound is present in the cell, BRD4BRD2-eGFP is degraded by dBET6 via the proteasome system. […]
Cells were seeded at 30-50% confluency in either 24, 48 or 96 well plates (3524, 3548, 3596 respectively, Costar) a day before compound treatment. The inventive compounds were titrated in the presence of 100 nM dBET6 and then were incubated with cells for 5 h following trypsinization and resuspension in DMEM media, transferred into 96-well plates (353910, Falcon®) and analyzed by flow cytometer (Guava® easyCyte™ HT, Millipore®). Signal from at least 3000 events per well was acquired and the eGFP and mCherry florescence monitored. Data was analyzed using FlowJo® (FlowJo®, LCC). Forward and side scatter outliers, frequently associated with cell debris, were removed leaving >90% of total cells, followed by removal of eGFP and mCherry signal outliers, leaving 88-90% of total cells creating the set used for quantification. […]

Broadly, the pIC50 is −log10 of the IC50, conventionally taken in molar units. Regarding `CN(C(=O)CCCCCNc1cccc2c1C(=O)N(C1CCC(=O)NC1=O)C2=O)c1ccc(NC(=O)CCCCCCC(=O)NO)cc1` (stereo not shown) [Compound 2, N^1-(4-(6-((2-(2,6-dioxopiperidin-3-yl)-1,3-dioxoisoindolin-4-yl)amino)-N-methylhexanamido)phenyl)-N^8-hydroxyoctanediamide], the pIC50 was 5.27.
